The text below walks through data of the supplement of paper PMC10307832.

Structures are written as SMILES.

The first test deals with HCC-366. Briefly: relative viability (nuclei count vs DMSO), 5 days (fraction); higher = more cells survive. Conditions: first compound 0.08 µM. A digest of the protocol: (§1)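 Relative viability was taken as the ratio of nuclei in treated wells to nuclei in vehicle wells. Lung cancer cell lines in 1536-well plates received compounds by pin tool one day after seeding, either one drug alone or a fixed anchor-drug dose plus five library-drug doses (not always all listed) in √10 steps. Nuclei were counted on 4× images after 5 days of treatment, and values are medians of duplicate plates.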
For `CCCCCCCCCCCC1=C(O)C(=O)C=C(O)C1=O` [Embelin] + C[C@@H](Oc1cc(-c2cnn(C3CCNCC3)c2)cnc1N)c1c(Cl)ccc(F)c1Cl [Crizotinib] (partner 1 µM), the relative viability came out at 0.633.

The same test, now with this note: first compound 0.8 µM.
On to `CCCCCCCCCCCC1=C(O)C(=O)C=C(O)C1=O` [Embelin] + O=C(CCCCCCC(=O)Nc1ccccc1)NO [Vorinostat] (partner 1 µM), for which the relative viability is 0.412.
The same measure, in the same setting: under `CCCCCCCCCCCC1=C(O)C(=O)C=C(O)C1=O` [Embelin] + C[C@]1(O)C[C@@H](c2nc(-c3ccc4ccc(-c5ccccc5)nc4c3)c3c(N)nccn32)C1 [Linsitinib] (partner 1 µM) stands 0.726; under `CCCCCCCCCCCC1=C(O)C(=O)C=C(O)C1=O` [Embelin] + CC(C)C[C@H](NC(=O)[C@H](Cc1ccccc1)NC(=O)c1cnccn1)B(O)O [Bortezomib] (partner 0.002 µM), 1.05; under `CCCCCCCCCCCC1=C(O)C(=O)C=C(O)C1=O` [Embelin] + CS(=O)(=O)CCNCc1ccc(-c2ccc3ncnc(Nc4ccc(OCc5cccc(F)c5)c(Cl)c4)c3c2)o1 [Lapatinib] (partner 2 µM), 1.11.
Same read-out and setting: then `CCCCCCCCCCCC1=C(O)C(=O)C=C(O)C1=O` [Embelin] + C[C@@H](Oc1cc(-c2cnn(C3CCNCC3)c2)cnc1N)c1c(Cl)ccc(F)c1Cl [Crizotinib] (partner 1 µM), with 0.572.

Still in this test, the particulars now being: first compound 2.53 µM.
As for `CCCCCCCCCCCC1=C(O)C(=O)C=C(O)C1=O` [Embelin] + O=C(CCCCCCC(=O)Nc1ccccc1)NO [Vorinostat] (partner 1 µM), the relative viability was 0.364.
Compound `CCCCCCCCCCCC1=C(O)C(=O)C=C(O)C1=O` [Embelin] + C[C@]1(O)C[C@@H](c2nc(-c3ccc4ccc(-c5ccccc5)nc4c3)c3c(N)nccn32)C1 [Linsitinib] (partner 1 µM) registered a relative viability of 0.846.
Still for that read-out and setting: then `CCCCCCCCCCCC1=C(O)C(=O)C=C(O)C1=O` [Embelin] + CC(C)C[C@H](NC(=O)[C@H](Cc1ccccc1)NC(=O)c1cnccn1)B(O)O [Bortezomib] (partner 0.002 µM), with 1.43; and `CCCCCCCCCCCC1=C(O)C(=O)C=C(O)C1=O` [Embelin] + CS(=O)(=O)CCNCc1ccc(-c2ccc3ncnc(Nc4ccc(OCc5cccc(F)c5)c(Cl)c4)c3c2)o1 [Lapatinib] (partner 2 µM), with 1.21.
Compound `CCCCCCCCCCCC1=C(O)C(=O)C=C(O)C1=O` [Embelin] + C[C@@H](Oc1cc(-c2cnn(C3CCNCC3)c2)cnc1N)c1c(Cl)ccc(F)c1Cl [Crizotinib] (partner 1 µM) gave a relative viability of 1.02.

The test is the same for the next values; noted with them: first compound 8 µM.
For `CCCCCCCCCCCC1=C(O)C(=O)C=C(O)C1=O` [Embelin] + O=C(CCCCCCC(=O)Nc1ccccc1)NO [Vorinostat] (partner 1 µM), the relative viability turned out to be 0.268.
As for `CCCCCCCCCCCC1=C(O)C(=O)C=C(O)C1=O` [Embelin] + C[C@]1(O)C[C@@H](c2nc(-c3ccc4ccc(-c5ccccc5)nc4c3)c3c(N)nccn32)C1 [Linsitinib] (partner 1 µM), the relative viability is 0.49.
`CCCCCCCCCCCC1=C(O)C(=O)C=C(O)C1=O` [Embelin] + CC(C)C[C@H](NC(=O)[C@H](Cc1ccccc1)NC(=O)c1cnccn1)B(O)O [Bortezomib] (partner 0.002 µM) yielded a relative viability of 1.1.
Same read-out and setting: under `CCCCCCCCCCCC1=C(O)C(=O)C=C(O)C1=O` [Embelin] + CS(=O)(=O)CCNCc1ccc(-c2ccc3ncnc(Nc4ccc(OCc5cccc(F)c5)c(Cl)c4)c3c2)o1 [Lapatinib] (partner 2 µM) stands 1.32; under `CCCCCCCCCCCC1=C(O)C(=O)C=C(O)C1=O` [Embelin] + C[C@@H](Oc1cc(-c2cnn(C3CCNCC3)c2)cnc1N)c1c(Cl)ccc(F)c1Cl [Crizotinib] (partner 1 µM), 0.637.

For another test, the system named is NCI-H3122. The description is as above. The conditions noted are these: first compound 0.08 µM. The gist of the method:
as §1
In turn, `CCCCCCCCCCCC1=C(O)C(=O)C=C(O)C1=O` [Embelin] + O=C(CCCCCCC(=O)Nc1ccccc1)NO [Vorinostat] (partner 1 µM) yielded a relative viability of 0.816.
For the compound `CCCCCCCCCCCC1=C(O)C(=O)C=C(O)C1=O` [Embelin] + C[C@]1(O)C[C@@H](c2nc(-c3ccc4ccc(-c5ccccc5)nc4c3)c3c(N)nccn32)C1 [Linsitinib] (partner 1 µM), the relative viability came to 1.01.
On the same count and under the same terms, under `CCCCCCCCCCCC1=C(O)C(=O)C=C(O)C1=O` [Embelin] + CC(C)C[C@H](NC(=O)[C@H](Cc1ccccc1)NC(=O)c1cnccn1)B(O)O [Bortezomib] (partner 0.002 µM) stands 0.978; under `CCCCCCCCCCCC1=C(O)C(=O)C=C(O)C1=O` [Embelin] + CS(=O)(=O)CCNCc1ccc(-c2ccc3ncnc(Nc4ccc(OCc5cccc(F)c5)c(Cl)c4)c3c2)o1 [Lapatinib] (partner 2 µM), 1.02.
As for `CCCCCCCCCCCC1=C(O)C(=O)C=C(O)C1=O` [Embelin] + C[C@@H](Oc1cc(-c2cnn(C3CCNCC3)c2)cnc1N)c1c(Cl)ccc(F)c1Cl [Crizotinib] (partner 1 µM), the relative viability is 0.296.

The test is the same for the next values; noted with them: first compound 0.8 µM.
`CCCCCCCCCCCC1=C(O)C(=O)C=C(O)C1=O` [Embelin] + O=C(CCCCCCC(=O)Nc1ccccc1)NO [Vorinostat] (partner 1 µM) registered a relative viability of 0.999.
Still for that read-out and setting: under `CCCCCCCCCCCC1=C(O)C(=O)C=C(O)C1=O` [Embelin] + C[C@]1(O)C[C@@H](c2nc(-c3ccc4ccc(-c5ccccc5)nc4c3)c3c(N)nccn32)C1 [Linsitinib] (partner 1 µM) stands 0.946; under `CCCCCCCCCCCC1=C(O)C(=O)C=C(O)C1=O` [Embelin] + CC(C)C[C@H](NC(=O)[C@H](Cc1ccccc1)NC(=O)c1cnccn1)B(O)O [Bortezomib] (partner 0.002 µM), 1.03.
Same read-out and setting: then `CCCCCCCCCCCC1=C(O)C(=O)C=C(O)C1=O` [Embelin] + CS(=O)(=O)CCNCc1ccc(-c2ccc3ncnc(Nc4ccc(OCc5cccc(F)c5)c(Cl)c4)c3c2)o1 [Lapatinib] (partner 2 µM), with 0.977; and `CCCCCCCCCCCC1=C(O)C(=O)C=C(O)C1=O` [Embelin] + C[C@@H](Oc1cc(-c2cnn(C3CCNCC3)c2)cnc1N)c1c(Cl)ccc(F)c1Cl [Crizotinib] (partner 1 µM), with 0.293.

Staying with this test, now noted: first compound 2.53 µM.
`CCCCCCCCCCCC1=C(O)C(=O)C=C(O)C1=O` [Embelin] + O=C(CCCCCCC(=O)Nc1ccccc1)NO [Vorinostat] (partner 1 µM) yielded a relative viability of 1.01.
In the case of `CCCCCCCCCCCC1=C(O)C(=O)C=C(O)C1=O` [Embelin] + C[C@]1(O)C[C@@H](c2nc(-c3ccc4ccc(-c5ccccc5)nc4c3)c3c(N)nccn32)C1 [Linsitinib] (partner 1 µM), the relative viability amounted to 1.01.
